According to PMC6311682, “Design, Synthesis, and Biological Evaluation of 2-Nitroimidazopyrazin-one/-es with Antitubercular and Antiparasitic Activity” (Journal of Medicinal Chemistry, 2018):
Converted amounts (≈) assume the structure as drawn. “And” between values parts separate entries of the source, which are not always exact repeats. Equal entries are not always repeated. Where two headings read alike, the source gives them in different places.

Columns and labels:
[1] = test system: C. difficile (630, ATCC BAA-1382); assay: Broth microdilution MIC assay, C. difficile; type: cell-based, Clostridium difficile; conditions: 630 ATCC BAA-1382, median MIC; for MIC: Clostridioides difficile, ATCCBAA1382, read-out: antibacterial MIC C. difficile
G. lamblia (WB line) = assay: ATP-bioluminescence cell growth and survival assay, G. lamblia trophozoites; type: cell-based; conditions: Giardia duodenalis
[2] = test system: L. donovani MHOM/IN/80/DD8 (ATCC50212); assay: L. donovani DD8 intracellular (THP-1) amastigote assay; type: cell-based; conditions: Leishmania donovani
[3] = test system: E. histolytica (HM1:IMSS); assay: ATP-bioluminescence cell growth and survival assay, E. histolytica trophozoites; type: cell-based; conditions: Entamoeba histolytica
M. tuberculosis (H37Rv) [4] = assay: M. tuberculosis H37Rv resazurin reduction microplate MIC assay, normoxic conditions; type: cell-based; conditions: Mycobacterium tuberculosis, normoxia, read-out: antibacterial MIC M. tuberculosis normoxia
[5] = test system: C. albicans (ATCC 90028) and C. neoformans (H99, ATCC 208821); assay: Broth microdilution MIC assay, fungi; type: cell-based; conditions: for MIC: Candida albicans, read-out: antifungal MIC
[6] = Mammalian cytotoxicity assay (resazurin), HEK293; conditions: human, HEK293 cells
[7] = Mammalian cytotoxicity assay (resazurin), HepG2; conditions: human, HepG2 cells
[8] = Broth microdilution MIC assay, ESKAPE pathogens; type: cell-based; conditions: S. aureus, E. coli, K. pneumoniae, A. baumannii, P. aeruginosa; read-out: antibacterial MIC ESKAPE
M. tuberculosis (H37Rv) [9] = assay: M. tuberculosis H37Rv resazurin reduction microplate MIC assay, hypoxic conditions (0.1% oxygen); type: cell-based, Mycobacterium tuberculosis; conditions: for MIC: Mycobacterium tuberculosis, H37Rv, hypoxia (0.1% oxygen), read-out: antibacterial MIC M. tuberculosis hypoxia
[10] = test system: T. b. brucei (strain 427, BS427); assay: 384-well resazurin viability assay, T. b. brucei bloodstream parasites; type: cell-based; conditions: Trypanosoma brucei, BS427, n = 2
[11] = Plasma protein binding, ultrafiltration method; type: in vitro ADME; conditions: human plasma, % bound, read-out: PPB (%)
[12] = Kinetic solubility determination by LC-UV; conditions: room temperature, 1% DMSO
[13] = test system: ESKAPE pathogens S. aureus (ATCC 43300), E. coli (ATCC 25922), K. pneumoniae (ATCC 700603), A. baumannii (ATCC 19606), P. aeruginosa (ATCC 27853); assay: Broth microdilution MIC assay, ESKAPE pathogens; type: cell-based
HepG2 cells = test system: HepG2 cells; parameters: method as in Jarrad et al. 2; conditions: ATCC HB-8065; ref Jarrad et al. 2; read-out: cytotoxicity CC50 HepG2; cited from earlier work
HEK293 cells = test system: HEK293 cells; parameters: method as in Jarrad et al. 2; conditions: ATCC CRL-1573; ref Jarrad et al. 2; read-out: cytotoxicity CC50 HEK 293; cited from earlier work
[14] = read-out: antiparasitic IC50 G. lamblia
[15] = read-out: antiparasitic pIC50 ± SE G. lamblia (converted)
[16] = read-out: antiparasitic IC50 L. donovani
[17] = read-out: antiparasitic pIC50 ± SE L. donovani (converted)
[18] = read-out: antiparasitic IC50 E. histolytica
[19] = read-out: antiparasitic pIC50 ± SE E. histolytica (converted)
[20] = read-out: antiparasitic IC50 T. b. brucei
[21] = read-out: antiparasitic pIC50 ± SE T. b. brucei (converted)
[22] = PBS, pH 7.4, Solubility µM (PBS), PBS pH 7.4, 24 h
[23] = water, Solubility µM (H2O), 24 h

Row | SMILES | MIC [1] | IC50 [2, 16] | IC50 [2, 17] | IC50 [3, 18] | IC50 [3, 19] | MIC [8] | antibacterial MIC ESKAPE [13] | CC50 (HepG2 cells) | CC50 (HEK293 cells) | other results
1 | O=c1c2nccn2ccn1Cc1ccccc1 [20b, 7-Benzylimidazo[1,2-a]pyrazin-8(7H)-one] | > 64 µg/mL | > 80 µM | > 79.4 µM | > 25 µM | > 25.1 µM | > 32 µg/mL |  |  |  | IC50 (G. lamblia (WB line); [14]): > 25 µM; IC50 (G. lamblia (WB line); [15]): > 25.1 µM; MIC (M. tuberculosis (H37Rv) [4]): > 32 µg/mL; MIC [5]: > 32 µg/mL; CC50 at 24 h [6]: > 100 µM; CC50 at 24 h [7]: > 100 µM; MIC (M. tuberculosis (H37Rv) [9]): > 32 µg/mL; IC50 [10, 20]: > 40 µM; IC50 [10, 21]: > 39.8 µM
2 | Cc1cn2cc([N+](=O)[O-])nc2c(OCc2ccc(OC(F)(F)F)cc2)n1 [25g, 6-Methyl-2-nitro-8-((4-(trifluoromethoxy)benzyl)oxy)imidazo[1,2-a]pyrazine] | > 64 µg/mL | > 80 µM | > 79.4 µM |  |  | > 32 µg/mL | >32 µg/mL |  |  | antibacterial MIC C. difficile [1]: >64 µg/mL; fraction unbound at 30 min, 5 μM [11]: < 0.01; antifungal MIC [5]: >32 µg/mL; MIC [5]: > 32 µg/mL; solubility at 24 h [12, 22]: < 5 µM; solubility at 24 h [12, 23]: < 5 µM; CC50 at 24 h [6]: > 100 µM; CC50 at 24 h [7]: > 100 µM
3 | O=C(NCc1ccc(OC(F)(F)F)cc1)c1ncc([N+](=O)[O-])[nH]1 [16c] |  |  |  |  |  |  |  | 104 µM | 93 µM | M. tuberculosis hypoxia % I (M. tuberculosis (H37Rv) [9]; at 32 μg/mL): 75% and 60–75%
4 | O=c1c2nccn2ccn1Cc1ccc(F)cc1 [20c, 7-(4-Fluorobenzyl)imidazo[1,2-a]pyrazin-8(7H)-one] | > 64 µg/mL | > 80 µM | > 79.4 µM | > 50 µM | > 50.1 µM | > 32 µg/mL |  |  |  | IC50 (G. lamblia (WB line); [14]): > 50 µM; IC50 (G. lamblia (WB line); [15]): > 50.1 µM; MIC (M. tuberculosis (H37Rv) [4]): > 32 µg/mL; MIC [5]: > 32 µg/mL; CC50 at 24 h [6]: > 100 µM; CC50 at 24 h [7]: > 100 µM; MIC (M. tuberculosis (H37Rv) [9]): > 32 µg/mL; IC50 [10, 20]: > 40 µM; IC50 [10, 21]: > 39.8 µM
5 | Cc1cccc(Cn2ccn3cc([N+](=O)[O-])nc3c2=O)c1 [17g, 7-(3-Methylbenzyl)-2-nitroimidazo[1,2-a]pyrazin-8(7H)-one] |  | > 20 µM | > 20 µM | > 50 µM | > 50.1 µM | > 32 µg/mL | >32 µg/mL |  |  | solubility at 24 h [12, 22]: < 5 µM; solubility at 24 h [12, 23]: < 5 µM; M. tuberculosis hypoxia % I (M. tuberculosis (H37Rv) [9]; @ 0.125–8 μg/mL): 70–90% I @ 0.125–8 μg/mL
6 | O=C(NO)c1nc([N+](=O)[O-])cn1Cc1ccc(OC(F)(F)F)cc1 [28j] |  |  |  |  |  |  |  | > 100 µM | 36 µM | M. tuberculosis hypoxia % I (M. tuberculosis (H37Rv) [9]; at 32 μg/mL): 60% and 60–75%
7 | CNC(=O)c1nc([N+](=O)[O-])cn1Cc1ccc(OC(F)(F)F)cc1 [28g] |  |  |  |  |  |  |  | > 100 µM | > 100 µM | 
8 | NNC(=O)c1nc([N+](=O)[O-])cn1Cc1ccc(OC(F)(F)F)cc1 [28k] |  |  |  |  |  |  |  | > 100 µM | > 100 µM | 
9 | O=c1c2nc([N+](=O)[O-])cn2ccn1Cc1cccc(C(F)(F)F)c1 [17h, 2-Nitro-7-(3-(trifluoromethyl)benzyl)imidazo[1,2-a]pyrazin-8(7H)-one] |  | > 40 µM | > 39.8 µM | > 50 µM | > 50.1 µM | > 32 µg/mL | >32 µg/mL |  |  | M. tuberculosis hypoxia % I (M. tuberculosis (H37Rv) [9]; @ 0.06–16 μg/mL): 70–90% I @ 0.06–16 μg/mL
10 | CCOC(=O)c1nc([N+](=O)[O-])cn1Cc1ccc(OC(F)(F)F)cc1 [28i] |  |  |  |  |  |  |  | > 100 µM | > 100 µM | 
11 | Cc1ccc(CCn2ccn3cc([N+](=O)[O-])nc3c2=O)cc1 [17n, 7-(4-Methylphenethyl)-2-nitroimidazo[1,2-a]pyrazin-8(7H)-one] | > 64 µg/mL | > 80 µM | > 79.4 µM | > 50 µM | > 50.1 µM | > 32 µg/mL | >32 µg/mL |  |  | antibacterial MIC C. difficile [1]: >64 µg/mL; IC50 (G. lamblia (WB line); [14]): 1.6 to 3.2 µM; MIC (M. tuberculosis (H37Rv) [4]): 4 µg/mL (≈ 13.4 µM); solubility at 24 h [12, 22]: < 5 µM; solubility at 24 h [12, 23]: < 5 µM
